Assay results as given in US20150315188A1, “COMPOUNDS AND METHODS FOR TREATMENT OF HYPERTENSION” (MEDIVATION TECHNOLOGIES, INC., priority 2012, published 2015).
pIC50: −log10 of the molar value.

Key:
Type in all cases: cell-based
[1] = molecular target: T1, Human adrenergic α1B receptor (Homo sapiens, UniProt P35368); test: β-Arrestin GPCR functional assay, adrenergic α1B (Protocol B); conditions: for pIC50: β-arrestin, antagonist vs nor-epinephrine EC80; for inhibition at 0.1 µM / inhibition at 0.3 µM / Percentage inhibition, Adrenergic α1B: nor-epinephrine at EC80 (50 nM); for inhibition at 0.1 µM / inhibition at 0.3 µM: read-out: Percentage inhibition, Adrenergic α1B
T1 sequence (P35368 1-520): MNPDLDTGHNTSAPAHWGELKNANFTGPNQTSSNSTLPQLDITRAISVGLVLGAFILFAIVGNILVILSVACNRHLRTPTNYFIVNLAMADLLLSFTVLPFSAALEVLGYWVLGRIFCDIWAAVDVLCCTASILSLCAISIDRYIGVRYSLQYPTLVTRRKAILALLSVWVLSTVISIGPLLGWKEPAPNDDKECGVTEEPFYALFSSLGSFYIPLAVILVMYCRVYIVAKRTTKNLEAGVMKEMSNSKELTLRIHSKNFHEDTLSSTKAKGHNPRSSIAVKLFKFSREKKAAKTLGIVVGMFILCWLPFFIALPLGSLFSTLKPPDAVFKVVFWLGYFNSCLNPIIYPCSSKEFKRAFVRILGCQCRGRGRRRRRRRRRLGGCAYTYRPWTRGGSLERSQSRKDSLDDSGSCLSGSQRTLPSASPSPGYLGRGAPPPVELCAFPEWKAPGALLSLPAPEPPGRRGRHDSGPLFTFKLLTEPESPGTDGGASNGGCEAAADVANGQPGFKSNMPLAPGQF
Protocol: (§1) To evaluate the activity of compounds in β-Arrestin GPCR functional assays, recombinant CHO cell line (DiscoveRX), over expressed with human adrenergic α1B receptor were used. The experiment was done with a kit of DiscoveRX as per recommended protocol of the supplier. Cells were harvested from culture flask using cell dissociation solution (CDS) and plated at a density of 12,000 cells/well in CP reagent (supplied with the kit) in a half area 96-well white polystyrene plate. After 24 h incubation at 37° C., compounds at various concentrations in 1% (final) DMSO were charged to the cells for 30 min at 37° C. Active nor-epinephrine (-NE) at its EC80 concentrations (50 nM) were then added to the cells and incubated for another 90 min at 37° C. Detection mix was prepared by mixing Path Hunter cell assay buffer, Emerald II solution and Galactone star solution in a ratio of 19:5:1 and incubated with the cells for 60 min at RT in the dark. The reading was taken in Envision at luminescence mode. Biochemical assay results are presented as the percent Inhibition in Table B2a, or IC50 values in Table B2b.

[2] = molecular target: T2, Human adrenergic α2A receptor (Homo sapiens, UniProt P08913); test: β-Arrestin GPCR functional assay, adrenergic α2A (Protocol B); conditions: for pIC50: β-arrestin, antagonist vs nor-epinephrine EC80; for inhibition at 0.1 µM / inhibition at 0.3 µM / Percentage inhibition, Adrenergic α2A: nor-epinephrine at EC80 (270 nM); for inhibition at 0.1 µM / inhibition at 0.3 µM: read-out: Percentage inhibition, Adrenergic α2A
T2 sequence (P08913 1-465): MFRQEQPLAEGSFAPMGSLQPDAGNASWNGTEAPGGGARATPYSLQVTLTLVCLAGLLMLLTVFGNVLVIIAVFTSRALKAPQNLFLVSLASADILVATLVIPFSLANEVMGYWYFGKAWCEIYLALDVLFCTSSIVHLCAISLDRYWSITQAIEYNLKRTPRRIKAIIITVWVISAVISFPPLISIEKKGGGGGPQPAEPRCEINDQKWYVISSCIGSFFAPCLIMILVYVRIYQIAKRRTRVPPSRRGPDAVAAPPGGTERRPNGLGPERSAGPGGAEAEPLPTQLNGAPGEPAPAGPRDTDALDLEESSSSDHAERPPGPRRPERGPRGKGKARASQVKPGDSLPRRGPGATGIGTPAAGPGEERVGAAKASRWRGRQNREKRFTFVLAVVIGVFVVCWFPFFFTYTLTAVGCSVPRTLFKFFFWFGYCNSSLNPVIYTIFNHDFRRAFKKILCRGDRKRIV
Protocol: as §1, with “α2A” for “α1B”, “with” for “with a”, “(270” for “(50”, “mixing of” for “mixing”

[3] = molecular target: T3, Human adrenergic α2B receptor (Homo sapiens, UniProt P18089); test: β-Arrestin GPCR functional assay, adrenergic α2B (Protocol B); conditions: for pIC50: β-arrestin, antagonist vs nor-epinephrine EC80, read-out: IC50 Adrenergic α2B; for inhibition at 0.01 µM / inhibition at 0.03 µM / inhibition at 0.1 µM / Percentage inhibition, Adrenergic α2B: nor-epinephrine at EC80 (50 nM); for inhibition at 0.01 µM / inhibition at 0.03 µM / inhibition at 0.1 µM: read-out: Percentage inhibition, Adrenergic α2B
T3 sequence (P18089 1-450): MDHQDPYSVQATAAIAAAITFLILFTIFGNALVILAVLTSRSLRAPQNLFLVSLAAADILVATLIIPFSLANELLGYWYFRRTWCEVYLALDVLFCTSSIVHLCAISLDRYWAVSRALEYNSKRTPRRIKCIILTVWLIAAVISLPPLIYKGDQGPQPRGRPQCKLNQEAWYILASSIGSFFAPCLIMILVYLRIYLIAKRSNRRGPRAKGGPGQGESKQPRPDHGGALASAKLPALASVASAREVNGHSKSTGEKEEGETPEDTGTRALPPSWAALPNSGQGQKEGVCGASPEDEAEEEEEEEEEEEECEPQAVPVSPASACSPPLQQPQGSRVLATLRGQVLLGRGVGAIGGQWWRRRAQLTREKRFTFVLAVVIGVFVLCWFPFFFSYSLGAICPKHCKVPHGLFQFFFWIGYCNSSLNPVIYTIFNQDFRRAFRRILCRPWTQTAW
In short: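 CHO cells overexpressing human α2B (PathHunter β-arrestin), 12,000 per well, 24 h at 37° C; compounds in 1% DMSO 30 min, then 50 nM norepinephrine (EC80) 90 min at 37° C.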

pIC50 [1] | pIC50 [2] | pIC50 [3] | SMILES | also measured
6.60 | 6.04 | 8.00 | Cc1cc(C)c2c(c1)c1c(n2CC(C)(O)c2cccnc2)CCN2CCCC12 (single isomer, unassigned) [44b] | 
6.01 | 4.94 | 7.06 | CC(O)(Cn1c2c(c3cc(F)ccc31)C1CCCN1CC2)c1ccncc1 (single isomer, unassigned) [31a] | 
6.94 | 5.29 | 7.38 | Cc1cc(F)c2c(c1)c1c(n2CC(O)c2ccncc2)CCN2CCCC12 (single isomer, unassigned) [137a] | 
6.17 | 5.62 | 6.59 | Cc1ccc2c(c1)c1c(n2CC(OC2CCCC2)c2ccncc2)CCN(C)C1 (single isomer, unassigned) [35a] | 
6.67 | 6.06 | 7.79 | Cc1cc(Cl)c2c(c1)c1c(n2CC(C)(O)c2ccncc2)CCN2CCCC12 (single isomer, unassigned) [91a] | 
7.33 | 6.15 | 7.85 | Cc1cc2c3c(n(CC(C)(O)c4ccncc4)c2cc1Cl)CCN1CCCC31 (single isomer, unassigned) [50a] | 
7.27 | 6.25 | 7.92 | Cc1cc2c3c(n(CC(C)(O)c4ccncc4)c2cc1Cl)CCN1CCCC31 (single isomer, unassigned) [50b] | 
5.92 |  | 6.42 | Cc1ccc2c(c1)c1c(n2CC(O)c2ccncc2)CC[N+]2([O-])CCCC12 (centres unmarked) [compound 23, 7-(2-hydroxy-2-(pyridin-4-yl)ethyl)-10-methyl-1,2,3,4,5,6,7,11c-octahydroindolizino[7,8-b]indole 4-oxide] | inhibition at 0.1 µM ([1]; 0.1 μM compound): 15%; inhibition at 0.3 µM ([1]; 0.3 μM compound): 15%; inhibition at 0.1 µM ([2]; 0.1 μM compound): 1%; inhibition at 0.3 µM ([2]; 0.3 μM compound): 1%; inhibition at 0.01 µM ([3]; 10 nM compound): 10%; inhibition at 0.03 µM ([3]; 30 nM compound): 12%; inhibition at 0.1 µM ([3]; 0.1 μM compound): 27%
6.82 | 6.09 | 7.92 | Cc1ccc2c(c1)c1c(n2CC(C)(O)c2ccncc2)CCN2CCCC12 (single isomer, unassigned) [13b] | Percentage inhibition, Adrenergic α1B ([1]; 0.1 μM compound): 32%; Percentage inhibition, Adrenergic α1B ([1]; 0.3 μM compound): 61%; Percentage inhibition, Adrenergic α2A ([2]; 0.1 μM compound): 23%; Percentage inhibition, Adrenergic α2A ([2]; 0.3 μM compound): 30%; Percentage inhibition, Adrenergic α2B ([3]; 10 nM compound): 4%; Percentage inhibition, Adrenergic α2B ([3]; 30 nM compound): 30%; Percentage inhibition, Adrenergic α2B ([3]; 0.1 μM compound): 102%
6.45 | 5.56 | 7.89 | OC(Cn1c2c(c3cc(F)ccc31)C1CCCN1CC2)c1ccncc1 (single isomer, unassigned) [18b] | inhibition at 0.1 µM ([1]; 0.1 μM compound): 19%; inhibition at 0.3 µM ([1]; 0.3 μM compound): 46%; inhibition at 0.1 µM ([2]; 0.1 μM compound): 14%; inhibition at 0.3 µM ([2]; 0.3 μM compound): 18%; inhibition at 0.01 µM ([3]; 10 nM compound): 37%; inhibition at 0.03 µM ([3]; 30 nM compound): 94%; inhibition at 0.1 µM ([3]; 0.1 μM compound): 103%
6.72 | 5.36 | 7.27 | OC(Cn1c2c(c3cc(Cl)cc(F)c31)C1CCCN1CC2)c1ccncc1 (single isomer, unassigned) [135a] | 
6.46 | 5.80 | 7.17 | Cc1ccc2c(c1)c1c(n2CC(OCC2CCC2)c2ccncc2)CCN(C)C1 (single isomer, unassigned) [59a] | 
6.83 | 5.99 | 7.80 | CC(O)(Cn1c2c(c3cc(Cl)cc(F)c31)C1CCCN1CC2)c1ccncc1 (single isomer, unassigned) [52a] | 
7.45 | 6.73 | 8.18 | Cc1cc(F)c2c(c1)c1c(n2CC(O)c2ccncc2)CCN2CCCC12 (single isomer, unassigned) [137b] | 
6.45 | 5.30 | 7.28 | Cc1cc(C)c2c(c1)c1c(n2CC(C)(O)c2ccncc2)CCN2CCCC12 (single isomer, unassigned) [19b] | Percentage inhibition, Adrenergic α1B ([1]; 0.1 μM compound): 25%; Percentage inhibition, Adrenergic α1B ([1]; 0.3 μM compound): 52%; Percentage inhibition, Adrenergic α2A ([2]; 0.1 μM compound): 24%; Percentage inhibition, Adrenergic α2A ([2]; 0.3 μM compound): 20%; Percentage inhibition, Adrenergic α2B ([3]; 10 nM compound): 15%; Percentage inhibition, Adrenergic α2B ([3]; 30 nM compound): 34%; Percentage inhibition, Adrenergic α2B ([3]; 0.1 μM compound): 86%
 | 6.05 | 7.97 | Cc1cc(F)cc2c3c(n(CC(O)c4ccncc4)c12)CCN1CCCC31 (single isomer, unassigned) [136a] | 
6.97 | 5.90 | 7.74 | Cc1cc(C)c2c(c1)c1c(n2CC(C)(O)c2ccncc2)CCN2CCCC12 (single isomer, unassigned) [19a] | inhibition at 0.1 µM ([1]; 0.1 μM compound): 45%; Percentage inhibition, Adrenergic α1B ([1]; 0.3 μM compound): 74%; inhibition at 0.1 µM ([2]; 0.1 μM compound): 13%; inhibition at 0.3 µM ([2]; 0.3 μM compound): 23%; Percentage inhibition, Adrenergic α2B ([3]; 10 nM compound): 33%; Percentage inhibition, Adrenergic α2B ([3]; 30 nM compound): 71%; inhibition at 0.1 µM ([3]; 0.1 μM compound): 101%
7.00 | 5.65 | 7.52 | Cc1ccc2c(c1)c1c(n2CC(C)(O)c2ccncc2)CCN2CCCC12 (single isomer, unassigned) [13a] | inhibition at 0.1 µM ([1]; 0.1 μM compound): 49%; inhibition at 0.3 µM ([1]; 0.3 μM compound): 74%; inhibition at 0.1 µM ([2]; 0.1 μM compound): 14%; inhibition at 0.3 µM ([2]; 0.3 μM compound): 21%; Percentage inhibition, Adrenergic α2B ([3]; 10 nM compound): 9%; inhibition at 0.03 µM ([3]; 30 nM compound): 29%; inhibition at 0.1 µM ([3]; 0.1 μM compound): 88%
 | 6.17 | 7.92 | Cc1cc(F)c2c(c1)c1c(n2CC(C)(O)c2cccnc2)CCN2CCCC12 (centres unmarked) [Compound No. 79a] | 
 | 5.57 | 7.47 | Cc1cc(F)c2c(c1)c1c(n2CC(C)(O)c2cccnc2)CCN2CCCC12 (single isomer, unassigned) [79b] | 
